# Assay results reported in patent publication US8692017B2, “Carbon linked modulators of gamma-secretase” (Janssen Pharmaceutica, N.V., priority 2007, dated 2014).
# Target: T1, γ-secretase (Homo sapiens, UniProt P49768)
# T1 construct: endogenous in cells; host or cells: SKNBE2 cells carrying APP 695 wild type
# Assay: Screening for γ-secretase-modulating activity (Aβ42 lowering) in SKNBE2 cells carrying the APP 695-wild type
# Format: cell-based
# Conditions: @ 1 uM; SKNBE2 cells carrying APP 695-wild type; read-out: Aβ % inhibition @ 1 uM
# Protocol: Screening was carried out using SKNBE2 cells carrying the APP 695-wild type, grown in DMEM/NUT-mix F12 (HAM) provided by Gibco (cat no. 31330-38) containing 5% Serum/Fe supplemented with 1% non-essential amino acids.
# Cells were grown to near confluency.
# The screening was performed using the assay as described in Citron et al (1997) Nature Medicine 3: 67.
row,Structure (SMILES),inhibition at 1 µM [%]
1,"CC(C)CC(C(=O)O)c1cc(C(=O)c2cc(F)cc(F)c2)cc(-c2ccc(C(F)(F)F)cc2)c1 (centres unmarked) [Compound 7, 2-[5-(3,5-Difluoro-benzoyl)-4′-trifluoromethyl-biphenyl-3-yl]-4-methyl-pentanoic acid]",50
2,"CC(C)CC(C(=O)O)c1cc(C(=O)c2ccc(C#N)cc2)cc(-c2ccc(C(F)(F)F)cc2)c1 (centres unmarked) [Compound 8, 2-[5-(4-Cyano-benzoyl)-4′-trifluoromethyl-biphenyl-3-yl]-4-methyl-pentanoic acid]",25
3,"CC(C)CC(C(=O)O)c1cc(-c2ccc(C(F)(F)F)cc2)cc(C(O)c2cc(F)cc(F)c2)c1 (centres unmarked) [Compound 9, 2-{5-[(3,5-Difluoro-phenyl)-hydroxy-methyl]-4′-trifluoromethyl-biphenyl-3-yl}-4-methyl-pentanoic acid]",14
4,"CC(C)CC(C(=O)O)c1cc(C#Cc2cc(F)cc(F)c2)cc(-c2ccc(C(F)(F)F)cc2)c1 (centres unmarked) [Compound 10, 2-[5-(3,5-Difluoro-phenylethynyl)-4′-trifluoromethyl-biphenyl-3-yl]-4-methyl-pentanoic acid]",53
5,"CC(C)CC(C(=O)O)c1cc(C#Cc2ccc(C(F)(F)F)cc2)cc(-c2ccc(C(F)(F)F)cc2)c1 (centres unmarked) [Compound 11, 4-Methyl-2-[4′-trifluoromethyl-5-(4-trifluoromethyl-phenylethynyl)-biphenyl-3-yl]-pentanoic acid]",10
6,"CC(C)CC(C(=O)O)c1cc(C#Cc2ccc(Cl)cc2)cc(-c2ccc(C(F)(F)F)cc2)c1 (centres unmarked) [Compound 12, 2-[5-(4-Chloro-phenylethynyl)-4′-trifluoromethyl-biphenyl-3-yl]-4-methyl-pentanoic acid]",18
7,"CC(C)CC(C(=O)O)c1cc(C#Cc2cc(C(F)(F)F)cc(C(F)(F)F)c2)cc(-c2ccc(C(F)(F)F)cc2)c1 (centres unmarked) [Compound 13, 2-[5-(3,5-Bis-trifluoromethyl-phenylethynyl)-4′-trifluoromethyl-biphenyl-3-yl]-4-methyl-pentanoic acid]",28
8,"CC(C)CC(C(=O)O)c1cc(/C=C\c2ccc(Cl)cc2)cc(-c2ccc(C(F)(F)F)cc2)c1 (centres unmarked) [Compound 21, 2-{5-[2-(4-Chloro-phenyl)-vinyl]-4′-trifluoromethyl-biphenyl-3-yl}-4-methyl-pentanoic acid]",34
9,"CC(C)CC(C(=O)O)c1cc(/C=C\c2ccc(C(F)(F)F)cc2)cc(-c2ccc(C(F)(F)F)cc2)c1 (centres unmarked) [Compound 22, 4-Methyl-2-{4′-trifluoromethyl-5-[2-(4-trifluoromethyl-phenyl)-vinyl]-biphenyl-3-yl}-pentanoic acid]",46
10,"CC(C)CC(C(=O)O)c1cc(/C=C/c2cc(C(F)(F)F)cc(C(F)(F)F)c2)cc(-c2ccc(C(F)(F)F)cc2)c1 (centres unmarked) [Compound 23, 2-{5-[2-(3,5-Bis-trifluoromethyl-phenyl)-vinyl]-4′-trifluoromethyl-biphenyl-3-yl}-4-methyl-pentanoic acid]",72

# Same assay, conditions: SKNBE2 cells carrying APP 695-wild type; read-out: Aβ 42 lowering EC50
row,Structure (SMILES),EC50 [µM]
1,"CC(C)CC(C(=O)O)c1cc(C(=O)c2cc(Cl)cc(Cl)c2)cc(-c2ccc(C(F)(F)F)cc2)c1 (centres unmarked) [Compound 1, 2-[5-(3,5-Dichloro-benzoyl)-4′-trifluoromethyl-biphenyl-3-yl]-4-methyl-pentanoic acid]",0.71
2,"CC(C)CC(C(=O)O)c1cc(Cc2cc(Cl)cc(Cl)c2)cc(-c2ccc(C(F)(F)F)cc2)c1 (centres unmarked) [Compound 2, 2-[5-(3,5-Dichloro-benzyl)-4′-trifluoromethyl-biphenyl-3-yl]-4-methyl-pentanoic acid]",0.57
3,"CC(C)CC(C(=O)O)c1cc(Cc2ccc(F)cc2F)cc(-c2ccc(C(F)(F)F)cc2)c1 (centres unmarked) [Compound 3, 2-[5-(2,4-Difluoro-benzyl)-4′-trifluoromethyl-biphenyl-3-yl]-4-methyl-pentanoic acid]",2.17
4,"CC(C)CC(C(=O)O)c1cc(Cc2cnccc2Cl)cc(-c2ccc(C(F)(F)F)cc2)c1 (centres unmarked) [Compound 4, 2-[5-(4-Chloro-pyridin-3-ylmethyl)-4′-trifluoromethyl-biphenyl-3-yl]-4-methyl-pentanoic acid]",2.75
5,"CC(C)CC(C(=O)O)c1cc(Cc2cccc(C(F)(F)F)c2)cc(-c2ccc(C(F)(F)F)cc2)c1 (centres unmarked) [Compound 5, 4-Methyl-2-[4′-trifluoromethyl-5-(3-trifluoromethyl-benzyl)-biphenyl-3-yl]-pentanoic acid]",1.13
6,"CC(C)CC(C(=O)O)c1cc(Cc2cc(F)cc(F)c2)cc(-c2ccc(C(F)(F)F)cc2)c1 (centres unmarked) [Compound 6, 2-[5-(3,5-Difluoro-benzyl)-4′-trifluoromethyl-biphenyl-3-yl]-4-methyl-pentanoic acid]",0.74
7,"CC(C)CC(C(=O)O)c1cc(/C=C/c2ccc(-c3ccccc3)cc2)cc(-c2ccc(C(F)(F)F)cc2)c1 (centres unmarked) [Compound 14, 2-[5-(2-Biphenyl-4-yl-vinyl)-4′-trifluoromethyl-biphenyl-3-yl]-4-methyl-pentanoic acid]",0.15
8,"CC(C)CC(C(=O)O)c1cc(/C=C/c2ccc(C(F)(F)F)cc2)cc(-c2ccc(C(F)(F)F)cc2)c1 (centres unmarked) [Compound 15, 4-Methyl-2-{4′-trifluoromethyl-5-[2-(4-trifluoromethyl-phenyl)-vinyl]-biphenyl-3-yl}-pentanoic acid]",0.4
9,"Cc1ccc(/C=C/c2cc(-c3ccc(C(F)(F)F)cc3)cc(C(CC(C)C)C(=O)O)c2)cc1 (centres unmarked) [Compound 16, 4-Methyl-2-[5-(2-p-tolyl-vinyl)-4′-trifluoromethyl-biphenyl-3-yl]-pentanoic acid]",0.66
10,"CC(C)CC(C(=O)O)c1cc(/C=C/c2ccc(Cl)cc2)cc(-c2ccc(C(F)(F)F)cc2)c1 (centres unmarked) [Compound 17, 2-{5-[2-(4-Chloro-phenyl)-vinyl]-4′-trifluoromethyl-biphenyl-3-yl}-4-methyl-pentanoic acid]",0.36
11,"CC(C)CC(C(=O)O)c1cc(/C=C/c2ccc(F)cc2)cc(-c2ccc(C(F)(F)F)cc2)c1 (centres unmarked) [Compound 18, 2-{5-[2-(4-Fluoro-phenyl)-vinyl]-4′-trifluoromethyl-biphenyl-3-yl}-4-methyl-pentanoic acid]",0.39
12,"CC(C)CC(C(=O)O)c1cc(/C=C/c2cc(F)cc(F)c2)cc(-c2ccc(C(F)(F)F)cc2)c1 (centres unmarked) [Compound 19, 2-{5-[2-(3,5-Difluoro-phenyl)-vinyl]-4′-trifluoromethyl-biphenyl-3-yl}-4-methyl-pentanoic acid]",0.45
13,"COc1ccc(/C=C/c2cc(-c3ccc(C(F)(F)F)cc3)cc(C(CC(C)C)C(=O)O)c2)cc1 (centres unmarked) [Compound 20, 2-{5-[2-(4-Methoxy-phenyl)-vinyl]-4′-trifluoromethyl-biphenyl-3-yl}-4-methyl-pentanoic acid]",0.61
14,"CC(C)CC(C(=O)O)c1cc(CCc2ccc(-c3ccccc3)cc2)cc(-c2ccc(C(F)(F)F)cc2)c1 (centres unmarked) [Compound 24, 2-[5-(2-Biphenyl-4-yl-ethyl)-4′-trifluoromethyl-biphenyl-3-yl]-4-methyl-pentanoic acid]",0.21
15,"CC(C)CC(C(=O)O)c1cc(CCc2ccc(C(F)(F)F)cc2)cc(-c2ccc(C(F)(F)F)cc2)c1 (centres unmarked) [Compound 25, 4-Methyl-2-{4′-trifluoromethyl-5-[2-(4-trifluoromethyl-phenyl)-ethyl]-biphenyl-3-yl}-pentanoic acid]",0.67
16,"CC(C)CC(C(=O)O)c1cc(CCc2ccc(Cl)cc2)cc(-c2ccc(C(F)(F)F)cc2)c1 (centres unmarked) [Compound 26, 2-{5-[2-(4-Chloro-phenyl)-ethyl]-4′-trifluoromethyl-biphenyl-3-yl}-4-methyl-pentanoic acid]",0.74
17,"CC(C)CC(C(=O)O)c1cc(CCc2ccc(F)cc2)cc(-c2ccc(C(F)(F)F)cc2)c1 (centres unmarked) [Compound 27, 2-{5-[2-(4-Fluoro-phenyl)-ethyl]-4′-trifluoromethyl-biphenyl-3-yl}-4-methyl-pentanoic acid]",0.58
18,"Cc1ccc(CCc2cc(-c3ccc(C(F)(F)F)cc3)cc(C(CC(C)C)C(=O)O)c2)cc1 (centres unmarked) [Compound 28, 4-Methyl-2-[5-(2-p-tolyl-ethyl)-4′-trifluoromethyl-biphenyl-3-yl]-pentanoic acid]",0.35
19,"CC(C)CC(C(=O)O)c1cc(CCc2cc(F)cc(F)c2)cc(-c2ccc(C(F)(F)F)cc2)c1 (centres unmarked) [Compound 29, 2-{5-[2-(3,5-Difluoro-phenyl)-ethyl]-4′-trifluoromethyl-biphenyl-3-yl}-4-methyl-pentanoic acid]",0.41
